Three molecules from US6355785B1, “Guanosine-rich oligonucleotide integrase inhibitors” (Aronex Pharmaceuticals, Inc., priority 1993, dated 2002) can be followed below.

Like-named read-outs stand apart in the source and are kept apart here.

For one series, the system named is NIH3T3. The class given is cell-based. The procedure:
(§1) Cytotoxicity Analysis. The cytotoxicity of T30177 was assayed as described above. […] The degree of cell proliferation was determined according to the manufacturer's instructions.
(§2) Cytotoxicity Assays. The cytotoxicity of T30177 was determined using several different cell lines and primary human cells as described above. The cytotoxicity profile obtained for log phase growing cells was variable depending upon the cell line used, while the slower growing PBMCs, PBLs, and macrophages all tolerated the compound at concentrations exceeding 100 μM as monitored using the trypan blue exclusion, [^3H]thymidine uptake, or [^3H]leucine uptake techniques.

The next series deals with Vero. Type of series: cell-based. As to the method:
as §1, §2

Another series addresses T1, HIV-2 integrase (Human immunodeficiency virus type 2 subtype A, UniProt P04584).
T1 construct: A plasmid encoding the HIV-2 integrase was generously provided by Dr. R. H. A. Plasterk; made in house
Put plainly: HIV-2 integrase 3′-processing assay. The class given is biochemical. The settings on record: HIV-1 DNA.

A further series deals with T2, FIV integrase (Feline immunodeficiency virus, UniProt P16088).
T2 construct: Purified recombinant wild-type FIV and SIV integrases were generous gifts; purchased gift of Dr. S. Chow (UCLA) (not bought)
Nature of the series: FIV integrase 3′-processing assay. Type of series: biochemical.

The target of series [1] is T3, HIV-1 integrase deletion mutant IN1-212 (Human immunodeficiency virus type 1 group M subtype B, UniProt P12497).
T3 construct: purchased gift of Drs; T. Jenkins and R. Craigie, NIDDK, NIH (not bought)
Nature of the series: Disintegration assay, IN1-212. Type of series: biochemical.

Details of series [2]: species or system cynomolgus monkeys. The settings on record: cynomolgus monkey, in vivo. As to the method:
Dosing. Twelve experimentally naive cynomolgus monkeys were assigned to four groups of three animals each. Prior to dosing, each animal was lightly sedated with a combination of ketamine (1 0 mg/kg) and diazepam (0.5 mg/kg), and a catheter was introduced into the femoral artery for recording central arterial pressure. Monkeys were given a single intravenous infusion of 5, 20, or 50 mg AR177/kg or saline over ten minutes through a cephalic vein catheter using a Harvard infusion pump. […] The concentration of AR177 in dosing solutions was confirmed post experiment by absorbance at 280 nm on a spectrophotometer. […] Electrocardiograms (ECGs), central pressure, and heart rate were recorded continuously for 120 minutes following the initiation of doing. […]
Serum chemistry parameters. The following were determined: sodium, potassium, chloride, carbon dioxide, total bilirubin, direct bilirubin, indirect bilirubin, alkaline phosphatase, lactate dehydrogenase, aspartate aminotransferase, alanine aminotransferase, gamma-glutamyltransferase, calcium, phosphorus, glucose, urea nitrogen, creatinine, uric acid total protein, albumin, globulin, cholesterol and triglycerides. The samples were analyzed at Sierra Nevada Laboratories (Reno, Nev.).

On the set-up of series [3]: species or system cynomolgus monkeys. The settings on record: cynomolgus monkey, in vivo. As to the method:
(§3) Hematology and coagulation parameters. Hematology and coagulation parameters were determined 9-11 days prior to the start of the study, just prior to administering doses 1 (day 1) and 12 (day 23), five minutes after dosing (coagulation only), 30 minutes and 4 hours following dosing, one day after the 12th dose (day 24), and in recovery monkeys at sacrifice (day 37). The following were determined: red blood cell count and morphology, total and differential while blood cells, hemoglobin, hematocrit, prothrombin time, fibrinogen, mean cell hemoglobin, mean corpuscular volume, mean corpuscular hemoglobin concentration, platelet count, activate partial thromboplastin time, and D-dime. Hematology was determined at Sierra Nevada Laboratories (Reno, Nev.).
The source holds these as a separate data set.

Series [4] concerns HIV-1DV. Put plainly: HIV-1 p24 production in SUP T1 cells. Type of series: cell-based. The settings on record: Human immunodeficiency virus 1, 96 h; SUP T1, HIV-1DV, four days.
For series [5], the system named is HIV-1DV. Nature of the series: Analysis of HIV-1 RNA and DNA in single cycle assays, SUP T1. Type of series: cell-based.
The subject of series [6] is CD4- and gp120-mediated cell fusion. Put plainly: cells. Type of series: cell-based.
Series [7] is classed as in vivo, cynomolgus monkeys. The procedure:
Dosing. Twelve experimentally naive cynomolgus monkeys were assigned to four groups of three animals each. Prior to dosing, each animal was lightly sedated with a combination of ketamine (1 0 mg/kg) and diazepam (0.5 mg/kg), and a catheter was introduced into the femoral artery for recording central arterial pressure. Monkeys were given a single intravenous infusion of 5, 20, or 50 mg AR177/kg or saline over ten minutes through a cephalic vein catheter using a Harvard infusion pump. Arterial blood samples were drawn at −10, +10, +20, +40, +60 and +120 minutes relative to the initiation of infusion into EDTA-containing tubes for hematology, complement factors, coagulation assay, serum chemistry, and plasma AR177 determination. At 24 hours post-infusion, blood was drawn via the femoral vein into EDTA-containing tubes for these same parameters. The concentration of AR177 in dosing solutions was confirmed post experiment by absorbance at 280 nm on a spectrophotometer. For the determination of AR177 by HPLC, the plasma fraction was obtained by low speed centrifugation of blood, and stored at −20° C. until used. Electrocardiograms (ECGs), central pressure, and heart rate were recorded continuously for 120 minutes following the initiation of doing. Table E-1 summarizes the study design. The animals were observed twice daily pharmacotoxic signs and general health beginning two days before dosing and for seven days following dosing. The monkeys were not necropsied at the end of the study.

Series [8] in a line: Repeat-dose monkey study: coagulation parameters (aPTT). Type of series: in vivo, cynomolgus monkeys. The procedure: as §3
The conditions of series [9]: human, up to 236 ug/mL.
The conditions of series [10]: cynomolgus monkey, in vivo.

T1 sequence (P04584 1172-1464): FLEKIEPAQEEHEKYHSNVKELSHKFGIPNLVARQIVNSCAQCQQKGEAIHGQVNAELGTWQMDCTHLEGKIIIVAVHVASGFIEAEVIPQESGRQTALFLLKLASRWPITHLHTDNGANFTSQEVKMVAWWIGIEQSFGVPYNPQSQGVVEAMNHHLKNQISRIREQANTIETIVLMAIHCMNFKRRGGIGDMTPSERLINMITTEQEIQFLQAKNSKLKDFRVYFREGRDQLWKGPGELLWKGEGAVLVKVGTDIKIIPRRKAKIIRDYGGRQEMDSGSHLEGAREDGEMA

Usually CC50 stands for the concentration that lowers cell viability or growth by half. As a reminder, the IC50 is the concentration that inhibits the measured activity by half. Take “5′-gtggtgggtgggtgggt-3′ (GTGGTGGGTGGGTGGGT; phosphorothioate termini, further chemistry not given here) [T30177]”: the cytotoxic concentration (CC50) with NIH3T3 and with Vero was over 100 µM throughout. Further, the TC25 in the series with NIH3T3 and in the series on Vero was over 100 µM each time. In addition, the TC95 in the series with NIH3T3 and in the series on Vero was over 100 µM each time. The IC50 with HIV-2 integrase was 90 nM; with FIV integrase, 175 nM; in [1], 600 nM. Also, the serum chemistry parameters entry in [2] was “no changes”. In series [3], the eosinophils entry is reported as “acute decrease in eosinophils”. Further, the lymphocytes result in series [3] was “acute and transient increase in lymphocytes”. Besides, the results for the IC50 virus-induced cytopathogenicity with Vaccinia virus (Vaccinia virus), with Junin virus (Junin virus) and in the series on Polio virus-1 (Polio virus-1) were over 200 µg/mL, over 50 µg/mL and over 200 µg/mL, respectively. Also, the “MCC minimum concentration altering normal cell morphology” value is reported as 400 μg/mL in the series on Vaccinia virus (Vaccinia virus assay), over 50 μg/mL with Junin virus (Junin virus assay) and “≧400 μg/mL” in the series on Polio virus-1 (Polio virus-1 assay).

The molecule `Cc1cn([C@H]2C[C@H](N=[N+]=[N-])[C@@H](CO)O2)c(=O)[nH]c1=O` [AZT, 3′-azido-3′-deoxythymidine] yielded a half-inhibitory concentration (IC50) with HIV-1DV [4] of 400 nM. Further, the “viral DNA synthesis (PCR)” value in the series on HIV-1DV [5] (36 hr post-infection) is recorded as “marked decrease in viral DNA synthesis”. The “HIV-1 specific transcript (RT-PCR)” value in the series with HIV-1DV [5] (drug added at zero hours) is listed as “viral mRNA was still being produced”.

For the molecule “5′-gtggtgggtgggtgggt-3′ [T30177] (GTGGTGGGTGGGTGGGT; phosphorothioate termini, further chemistry not given here)”, in [6], the “fusion IC50 relative to virus infection assay IC50” value is given as “approximately 100 fold”. In addition, the IC50 in series [6] (read-out: IC50 CD4- and gp120-mediated cell fusion) was determined as 1000 nM. Further, the “emesis during the infusion” value in [7] (20 mg/kg) is “all of the monkeys”; in series [7] (50 mg/kg) it was “two of the three animals”. Moreover, the “blood pressure, heart rate, electrocardiographic activity” value in series [7] (5, 20, 50 mg/kg) is given as “No clearly treatment-related changes”. Further, the mortality entry in series [7] (up to 50 mg/kg) is recorded as “no animals died”. In addition, the “anticoagulation activity (aPTT)” value in series [8] (2.5 mg/kg) is listed as “no anticoagulation activity”. In addition, the “mean aPTT relative to pre-dose” value in [8] (10 mg/kg, 5 minutes post-dosing, doses 1 and 12) is “approximately twice the pre-dose value”. Further, the “mean aPTT” value in [8] (40 mg/kg, five minutes after dosing) is given as “exceeded the upper limit of the assay”. Besides, the “no effect plasma AR177 concentration versus aPTT” value in series [8] (cynomolgus monkey, in vivo) is on record as 60-100 μg AR177/mL. Also, the “plasma AR177 concentration at doubling of aPTT” value in series [8] (cynomolgus monkey, in vivo) is on record as 100-200 μg AR177/mL. The “plasma AR177 concentration at tripling of aPTT” value in series [8] (cynomolgus monkey, in vivo) is listed as 220-300 μg AR177/mL. The IC50 virus-induced cytopathogenicity with HSV-1 (HSV-1 (KOS)) is over 200 µg/mL; with HSV-1 (HSV-1 TK (B2006)), over 200 µg/mL; in the series on HSV-1 (HSV-1 TK (VMW1837)), over 200 µg/mL; with Sindbis virus (Sindbis virus), over 200 µg/mL; with Influenza A (H3N2) (Influenza A (H3N2)) it was over 125 µg/mL; in the series with Tacaribe it was over 50 µg/mL. Further, the “MCC minimum concentration altering normal cell morphology” value in the series with HSV-1 (HSV-1 (KOS) assay) is on record as 400 μg/mL; in the series with HSV-1 (HSV-1 TK (B2006) assay) it was 400 μg/mL; in the series on HSV-1 (HSV-1 TK (VMW1837) assay), 400 μg/mL; in the series on Sindbis virus (Sindbis virus assay), “≧200 μg/mL”; with Influenza A (H3N2) (Influenza A (H3N2) assay), over 200 μg/mL; in the series with Tacaribe, over 50 μg/mL. In addition, the “complement CH50” value in series [9] was “no effect”. For the same molecule, in series [10], the “histopathology of organs and tissues” value was “No clearly treatment-related histopathologic changes”. For the same molecule, the organ weight result in [10] is “no effects on organ weight”.
